From the supplement of paper PMC10307832 come the findings set out here.

Experiment in all cases: relative viability (nuclei count vs DMSO), 5 days (fraction); higher = more cells survive
Compound in assay [1]: C1COCCN1C2=NC(=NC3=C2OC4=C3C=CC=N4)C5=CC(=CC=C5)NC(=O)C6=CN=C(C=C6)N + N=C(N)NC(=N)NCCc1ccccc1 [Phenformin] (partner 250 µM)
A digest of the protocol:
(§1)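 For relative viability, nuclei counts in treated wells were divided by those in vehicle wells. Lung cancer cell lines had been pin-tool dosed in 1536-well plates the day after seeding and cultured for 5 days, then fixed and stained in one step (final 0.05% Triton X-100, 1% formaldehyde, 1 ug/ml Hoechst) and imaged at 4×. Doses were one drug alone or a fixed anchor-drug dose plus five library-drug doses (not always all listed) in √10 steps, and values are duplicate-plate medians.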

Compound in assay [2]: CN1CCC(CNc2ccc3ncc(-c4cccc(OC(F)(F)F)c4)n3n2)CC1 [SGI-1776] + CCNC(=O)c1noc(-c2cc(C(C)C)c(O)cc2O)c1-c1ccc(CN2CCOCC2)cc1 [Luminespib] (partner 0.01 µM)
A digest of the protocol: as §1

Compound in assay [3]: CN1CCC(CNc2ccc3ncc(-c4cccc(OC(F)(F)F)c4)n3n2)CC1 [SGI-1776] + C[C@@H](Oc1cc(-c2cnn(C3CCNCC3)c2)cnc1N)c1c(Cl)ccc(F)c1Cl [Crizotinib] (partner 1 µM)
The method, boiled down:
as §1

Compound in assay [4]: Nc1ccccc1NC(=O)c1ccc(CNC(=O)OCc2cccnc2)cc1 [Entinostat] + CS(=O)(=O)CCNCc1ccc(-c2ccc3ncnc(Nc4ccc(OCc5cccc(F)c5)c(Cl)c4)c3c2)o1 [Lapatinib] (partner 2 µM)
The method, boiled down: as §1

In the case of HCC-827, the relative viability turned out to be 0.384 in assay [1] (first compound 0.02 µM); 0.43 in assay [1] (first compound 0.06325 µM); 0.419 in assay [1] (first compound 0.2 µM); 0.416 in assay [1] (first compound 0.6325 µM); 0.386 in assay [1] (first compound 2 µM); 0.551 in assay [2] (first compound 0.08 µM). In addition, the relative viability in assay [2] (first compound 0.8 µM) worked out at 0.622; in assay [2] (first compound 2.53 µM) it was 0.782; in assay [2] (first compound 8 µM) it was 0.348; in assay [3] (first compound 0.08 µM), 0.956; in assay [3] (first compound 0.8 µM), 0.975; in assay [3] (first compound 2.53 µM) it was 0.985. In addition, the relative viability in assay [3] (first compound 8 µM) is 0.915; in assay [4] (first compound 0.02 µM), 0.18; in assay [4] (first compound 0.06325 µM), 0.184; in assay [4] (first compound 0.2 µM), 0.126; in assay [4] (first compound 0.6325 µM) it was 0.147; in assay [4] (first compound 2 µM) it was 0.17.

As to HOP-62, the relative viability in assay [1] (first compound 0.02 µM) stood at 0.762; in assay [1] (first compound 0.06325 µM), 0.874; in assay [1] (first compound 0.2 µM), 0.686; in assay [1] (first compound 0.6325 µM), 0.546; in assay [1] (first compound 2 µM), 0.294; in assay [2] (first compound 0.08 µM), 0.835. In addition, the relative viability in assay [2] (first compound 0.8 µM) was determined as 0.93; in assay [2] (first compound 2.53 µM), 0.941; in assay [2] (first compound 8 µM), 0.89; in assay [3] (first compound 0.08 µM), 0.998; in assay [3] (first compound 0.8 µM) it was 0.854; in assay [3] (first compound 2.53 µM) it was 0.839. Further, the relative viability amounted to 0.969 in assay [3] (first compound 8 µM); 1.12 in assay [4] (first compound 0.02 µM); 0.994 in assay [4] (first compound 0.06325 µM); 0.907 in assay [4] (first compound 0.2 µM); 0.532 in assay [4] (first compound 0.6325 µM); 0.323 in assay [4] (first compound 2 µM).

With IA-LM, the relative viability in assay [3] (first compound 0.08 µM) was found to be 0.514; in assay [3] (first compound 0.8 µM), 0.989; in assay [3] (first compound 8 µM), 0.69; in assay [4] (first compound 0.02 µM) it was 0.892; in assay [4] (first compound 0.06325 µM) it was 0.926; in assay [4] (first compound 0.2 µM), 1.17. The relative viability in assay [4] (first compound 0.6325 µM) is 0.601; in assay [4] (first compound 2 µM), 0.514.

For the cell line LC-2-ad, the relative viability stood at 0.551 in assay [1] (first compound 0.02 µM); 0.598 in assay [1] (first compound 0.06325 µM); 0.456 in assay [1] (first compound 0.2 µM); 0.493 in assay [1] (first compound 0.6325 µM); 0.49 in assay [1] (first compound 2 µM); 0.983 in assay [2] (first compound 0.08 µM). Further, the relative viability in assay [2] (first compound 0.8 µM) came out at 1.09; in assay [2] (first compound 2.53 µM) it was 1.06; in assay [2] (first compound 8 µM), 0.769; in assay [3] (first compound 0.08 µM), 0.53; in assay [3] (first compound 0.8 µM), 0.47; in assay [3] (first compound 2.53 µM), 0.414. Moreover, the relative viability in assay [3] (first compound 8 µM) worked out at 0.36; in assay [4] (first compound 0.02 µM), 0.975; in assay [4] (first compound 0.06325 µM), 0.904; in assay [4] (first compound 0.2 µM), 0.907; in assay [4] (first compound 0.6325 µM) it was 0.334; in assay [4] (first compound 2 µM), 0.113.

On to LCLC-97TM1, for which the relative viability stood at 0.446 in assay [1] (first compound 0.02 µM); 0.475 in assay [1] (first compound 0.06325 µM); 0.409 in assay [1] (first compound 0.2 µM); 0.452 in assay [1] (first compound 0.6325 µM); 0.419 in assay [1] (first compound 2 µM); 0.947 in assay [2] (first compound 0.08 µM). Moreover, the relative viability is 0.847 in assay [2] (first compound 0.8 µM); 0.746 in assay [2] (first compound 2.53 µM); 0.742 in assay [2] (first compound 8 µM); 0.383 in assay [3] (first compound 0.08 µM); 0.384 in assay [3] (first compound 0.8 µM); 0.342 in assay [3] (first compound 2.53 µM). The relative viability in assay [3] (first compound 8 µM) is 0.198; in assay [4] (first compound 0.02 µM) it was 0.942; in assay [4] (first compound 0.06325 µM), 1.21; in assay [4] (first compound 0.2 µM), 0.784; in assay [4] (first compound 0.6325 µM), 0.41; in assay [4] (first compound 2 µM), 0.326.

As to LCLC-103H, the relative viability in assay [1] (first compound 0.02 µM) was found to be 0.328; in assay [1] (first compound 0.06325 µM), 0.34; in assay [1] (first compound 0.2 µM) it was 0.33; in assay [1] (first compound 0.6325 µM) it was 0.343; in assay [1] (first compound 2 µM), 0.252; in assay [2] (first compound 0.08 µM) it was 0.965. Also, the relative viability is 0.88 in assay [2] (first compound 0.8 µM); 0.948 in assay [2] (first compound 2.53 µM); 0.729 in assay [2] (first compound 8 µM); 1.03 in assay [3] (first compound 0.08 µM); 1.04 in assay [3] (first compound 0.8 µM); 1.03 in assay [3] (first compound 2.53 µM). Further, the relative viability in assay [3] (first compound 8 µM) was 0.958.

For LK-2, the relative viability in assay [1] (first compound 0.02 µM) stood at 0.538; in assay [1] (first compound 0.06325 µM), 0.551; in assay [1] (first compound 0.2 µM), 0.249; in assay [1] (first compound 0.6325 µM), 0.2; in assay [1] (first compound 2 µM), 0.252; in assay [2] (first compound 0.08 µM) it was 0.17. Besides, the relative viability in assay [2] (first compound 0.8 µM) is 0.188; in assay [2] (first compound 2.53 µM) it was 0.257; in assay [2] (first compound 8 µM), 0.159; in assay [3] (first compound 0.08 µM), 0.228; in assay [3] (first compound 0.8 µM), 0.228; in assay [3] (first compound 2.53 µM), 0.258. The relative viability was determined as 0.25 in assay [3] (first compound 8 µM); 0.98 in assay [4] (first compound 0.02 µM); 1.05 in assay [4] (first compound 0.06325 µM); 1.01 in assay [4] (first compound 0.2 µM); 0.476 in assay [4] (first compound 0.6325 µM); 0.459 in assay [4] (first compound 2 µM).

Regarding LOU-NH91, the relative viability in assay [1] (first compound 0.02 µM) came out at 0.709; in assay [1] (first compound 0.06325 µM) it was 0.723; in assay [1] (first compound 0.2 µM), 0.724; in assay [1] (first compound 0.6325 µM) it was 0.721; in assay [1] (first compound 2 µM), 0.652; in assay [2] (first compound 0.08 µM), 0.366. The relative viability turned out to be 0.345 in assay [2] (first compound 0.8 µM); 0.367 in assay [2] (first compound 2.53 µM); 0.305 in assay [2] (first compound 8 µM); 0.776 in assay [3] (first compound 0.08 µM); 0.747 in assay [3] (first compound 0.8 µM); 0.693 in assay [3] (first compound 2.53 µM). The relative viability was found to be 0.593 in assay [3] (first compound 8 µM); 0.781 in assay [4] (first compound 0.02 µM); 0.848 in assay [4] (first compound 0.06325 µM); 0.769 in assay [4] (first compound 0.2 µM); 0.765 in assay [4] (first compound 0.6325 µM); 0.561 in assay [4] (first compound 2 µM).

As for LU99A, the relative viability in assay [1] (first compound 0.02 µM) was 0.845; in assay [1] (first compound 0.06325 µM) it was 0.876; in assay [1] (first compound 0.2 µM), 0.78; in assay [1] (first compound 0.6325 µM), 0.371; in assay [1] (first compound 2 µM), 0.255; in assay [2] (first compound 0.08 µM), 0.245. Also, the relative viability came out at 0.247 in assay [2] (first compound 0.8 µM); 0.253 in assay [2] (first compound 2.53 µM); 0.254 in assay [2] (first compound 8 µM); 0.621 in assay [3] (first compound 0.08 µM); 0.529 in assay [3] (first compound 0.8 µM); 0.549 in assay [3] (first compound 2.53 µM). The relative viability in assay [3] (first compound 8 µM) came out at 0.288; in assay [4] (first compound 0.02 µM), 0.957; in assay [4] (first compound 0.06325 µM) it was 1.04; in assay [4] (first compound 0.2 µM), 0.863; in assay [4] (first compound 0.6325 µM), 0.617; in assay [4] (first compound 2 µM) it was 0.592.
